Each structure is given as a SMILES string.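 Test compounds were applied to cells in 96-well plates for 48 hours at 5 doses. TGI marks complete inhibition of growth.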

Holding throughout (assay): NCI tumour cell line growth inhibition, 48 h
In test [1] the test system is P388 leukemia.
In test [2] the test system is SN12K1 renal.
For test [3], the system named is P388/ADR leukemia.
Test [4] has as its system HS 578T breast.
Test [5] has as its system T-47D breast.
In test [6] the test system is MDA-MB-231 breast.
The subject of test [7] is BT-549 breast.
Test [8] deals with PC-3 prostate.
The subject of test [9] is MDA-MB-435.
Test [10] relates to LXFL 529 NSCLC.
Test [11] concerns RXF-631 renal.

For `CC(=O)C(=O)NC1/C=C(C)\C=C/C(O)C/C=C(C)\C=C/C(O)CC2OC(=O)C1(C)C(=O)C2C` (configuration not stated), the TGI in test [1] was greater than 48.2 µM; in test [2] it was greater than 100 µM; in test [3] it was greater than 66.6 µM.
For `C/C(=N\Nc1nc2cc(Cl)ccc2s1)c1ccccn1`, the TGI in test [4] is greater than 100 µM; in [5], 43.6 µM; in test [6], 7.41 µM; in test [7], greater than 61.3 µM; in [8] it was greater than 35.2 µM; in [9], greater than 42 µM.
For `CN(C)C(=O)Oc1c(Br)cc(Br)cc1C(=O)OCc1ccccc1`, the TGI in [1] is 43 µM; in test [2], greater than 88.2 µM; in test [3], 41.6 µM.
For the compound `O=C1CC(/C=C/c2ccco2)=C(O)C1=O`, the TGI was determined as 87.9 µM in [4]; 35.8 µM in test [5]; 35.2 µM in test [6]; 23.6 µM in test [7]; 25.4 µM in [8]; 35.3 µM in [9].
`COC1OCC(O)C(NC(=O)N(C)N=O)C1O` (configuration not stated): the TGI in test [1], in test [2] and in test [3] was greater than 100 µM in each case.
As for `O=c1ccc2ccc(CBr)cc2o1`, the TGI in test [4] was 28.9 µM; in [5] it was 5.76 µM; in test [6] it was 4.14 µM; in test [7], 8.99 µM; in test [8], greater than 100 µM; in test [9] it was 10.4 µM.
As for `CCN1c2ccccc2NC(=S)c2c1n[nH]c2-c1ccccc1`, the TGI in test [4] is greater than 100 µM; in [5], 74.5 µM; in test [6], 61.8 µM; in test [7], greater than 100 µM; in [8] it was 84.6 µM; in [9], 52.5 µM.
Consider `CCCCCCSc1nc(N)nc2nc[nH]c12`, for which the TGI in test [1] was greater than 68 µM; in test [2] it was greater than 100 µM; in test [3], 44.4 µM.
Consider `CCOC(=O)c1nc2ccc(OC)cc2c2c1Cc1ccccc1-2`, for which the TGI in [10] and in [11] was greater than 100 µM each time.
As to `CN(C)CCNC(=O)c1cccc2ccc(-c3ccc(Br)cc3)nc12`, the figures for the TGI in test [1], in [2] and in test [3] were 8.48 µM, 2.63 µM and 4.44 µM, respectively.
As to `CC1(C)OC[C@H](C(=N)OCc2ccccc2)O1`, in [10], the TGI is greater than 100 µM.

These data come from PubChem BioAssay (NCI).
